# From PubChem BioAssay AID1919001 (Molecular Pharmacology Branch, DTP, NCI, 2023)
# “And” between values parts separate entries of the source, which are not always exact repeats. Equal values may be shown once.
# Tested on: 699152-130-R-J1-PDC complex spheroid growth
# Test: Anticancer human tumor 699152-130-R-J1-PDC patient-derived pancreatic carcinoma cell line growth inhibition [AhR]
# Settings: for viability, T/C: stronger effect = lower value
# Source text: Multicellular complex tumor spheroid response to aryl hydrocarbon receptor antagonists in combination with a variety of drugs and investigational agents in selected tumor cell lines
# The current study was undertaken to assess response to aryl hydrocarbon receptor antagonists in combination with standard-of-care drugs and investigational agents in solid tumor complex spheroid models. Complex spheroids include a stromal component modeled by human endothelial cells (HUVEC) and fibroblasts modeled by human mesenchymal stem cells (MSCs). The concentration ranges selected for each drug and investigational agent were based upon clinically achievable concentrations if the clinical Cmax of the agent was known.
# Compounds. The drugs and investigational agents: BAY 2416964 (NSC825713), GNF351 (NSC835774), CH-223191 (NSC835775), CPI-455 (NSC825282), aza-TdCyd (NSC777586), decitabine (NSC127716), belinostat (NSC758774), entinostat (NSC756642), pevonedistat (NSC761192), tazemetostat (NSC777109), talazoparib (NSC765396), olaparib (NSC753686), selinexor (NSC780203), nedisertib (M3814, NSC802822), bortezomib (NSC756655), venetoclax (NSC766270), doxorubicin (NSC123127), elimusertib (BAY189344, NSC800525), ceralasertib (AZD6738, NSC777638), TAK-243 (NSC785004), alisertib (NSC759677), etoposide (NSC141540), topotecan (NSC609699), eribulin (NSC707389), gemcitabine (NSC613327), carboplatin (NSC241240), cisplatin (NSC119875), and SN-38 (NSC673596) were obtained from the National Cancer Institute (NCI) Developmental Therapeutics Program Chemical Repository (32). The FDA-approved anticancer drug set is available from the Developmental Therapeutics Program at https://dtp.cancer.gov/organization/dscb/obtaining/available plates.htm. […] The stock solutions were prepared in dimethyl sulfoxide (DMSO, Sigma-Aldrich, St. Louis, MO, cat. D2650), except for the platinum compounds which were prepared in saline (Quality Biological, Gaithersburg, MD, cat. 114-055-101), at 800-fold the tested concentration and stored at -70 degrees C prior to their use. All drugs and investigational agents were tested over a range starting from a high concentration at or near the clinical Cmax and decreasing in half-log increments. If the clinical Cmax for an agent had not been determined, the highest concentration tested was 10 microM (Table 1).
# Cell Culture. All cells were maintained in an incubator at 37 degrees C and 5% CO2 with 95% humidity. The PDC lines were cultured according to standard operating procedures established by the NCI PDMR (https://pdmr.cancer.gov). Briefly, all PDCs were thawed and cultured in Matrigel-coated flasks prepared with a working solution of 1X Ham's F-12 nutrient mix, without supplementation (Invitrogen, Waltham, MA, cat. 11765054), 100 U/mL penicillin-streptomycin (Invitrogen, cat. 15140122), and 2.5% Matrigel (Corning Inc., Corning, NY, cat. 354248) for the first three passages. All PDCs were cultured in complete DMEM/F-12 media containing advanced DMEM/F-12 (Invitrogen, cat. 12634028), 4.9% defined fetal bovine serum, heat inactivated (HyClone Laboratories Inc., Logan, UT, cat. SH30070.03HI), 389 ng/mL hydrocortisone (Sigma-Aldrich, cat. H4001), 9.7 ng/mL human EGF recombinant protein (Invitrogen, cat. PHG0313), 23.4 microg/mL adenine (Sigma-Aldrich, cat. A2786), 97.3 U/mL penicillin-streptomycin (Invitrogen, cat. 15140122), 1.9 mM L-glutamine (Invitrogen, cat. 25030081), and 9.7 microM Y-27632 dihydrochloride (Tocris Bioscience, Bristol, United Kingdom, cat. 1254). The PDCs were cultured in complete DMEM/F12 media without 10 microM Y-27632 dihydrochloride for at least two passages prior to the screen. The established cell lines NCI-H1341 and […] were cultured in DMEM/F-12, HEPES (Invitrogen, cat. 11330032), 5% defined fetal bovine serum (HyClone Laboratories Inc., cat. SH30070.03), ITS premix universal culture supplement [insulin (5 microg/mL), transferrin (5 microg/mL), and selenious acid (5 ng/mL)] […]
# [1] = curve of first compound, second compound 0.1 µM
# [2] = curve of first compound, second compound 0.316 µM
# [3] = curve of first compound, second compound 1 µM
# [4] = curve of first compound, second compound 3.16 µM
# [5] = curve of first compound, second compound 10 µM
# [6] = second compound 0.1 µM, first compound 0.0316 µM
# [7] = second compound 0.1 µM, first compound 0.1 µM
# [8] = second compound 0.1 µM, first compound 0.316 µM
# [9] = second compound 0.1 µM, first compound 1 µM
# [10] = second compound 0.1 µM, first compound 3.16 µM
# [11] = second compound 0.1 µM, first compound 10 µM
# [12] = second compound 0.316 µM, first compound 0.0316 µM
# [13] = second compound 0.316 µM, first compound 0.1 µM
# [14] = second compound 0.316 µM, first compound 0.316 µM
# [15] = second compound 0.316 µM, first compound 1 µM
# [16] = second compound 0.316 µM, first compound 3.16 µM
# [17] = second compound 0.316 µM, first compound 10 µM
# [18] = second compound 1 µM, first compound 0.0316 µM
# [19] = second compound 1 µM, first compound 0.1 µM
# [20] = second compound 1 µM, first compound 0.316 µM
# [21] = second compound 1 µM, first compound 1 µM
# [22] = second compound 1 µM, first compound 3.16 µM
# [23] = second compound 1 µM, first compound 10 µM
# [24] = second compound 3.16 µM, first compound 0.0316 µM
# [25] = second compound 3.16 µM, first compound 0.1 µM
# [26] = second compound 3.16 µM, first compound 0.316 µM
# [27] = second compound 3.16 µM, first compound 1 µM
# [28] = second compound 3.16 µM, first compound 3.16 µM
# [29] = second compound 3.16 µM, first compound 10 µM
# [30] = second compound 10 µM, first compound 0.0316 µM
# [31] = second compound 10 µM, first compound 0.1 µM
# [32] = second compound 10 µM, first compound 0.316 µM
# [33] = second compound 10 µM, first compound 1 µM
# [34] = second compound 10 µM, first compound 3.16 µM
# [35] = second compound 10 µM, first compound 10 µM
# 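Note: compound exposure lasted 7 days after spheroids had grown for 3 days.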
IC50 [1] [µM],IC50 [2] [µM],IC50 [3] [µM],IC50 [4] [µM],IC50 [5] [µM],SMILES,"viability, T/C [6] [%]","viability, T/C [7] [%]","viability, T/C [8] [%]","viability, T/C [9] [%]","viability, T/C [12] [%]","viability, T/C [13] [%]","viability, T/C [14] [%]","viability, T/C [15] [%]","viability, T/C [18] [%]","viability, T/C [19] [%]","viability, T/C [20] [%]","viability, T/C [21] [%]","viability, T/C [24] [%]","viability, T/C [25] [%]","viability, T/C [26] [%]",further results
> 10,> 10,> 10,> 10,> 10,CC(C)c1c(-c2ccccc2)nc2c(C#N)c[nH]n2c1=O + CC(CO)NC(=O)c1cc(-c2ccc(Cl)cc2)nn(-c2cnn(C)c2)c1=O,97,97.8,109,100,93.6,98.7,86.4,87.9,99.7,104,105,97.3,92.4,90.3,94.8,"viability, T/C [10]: 94.9%; viability, T/C [11]: 95.5%; viability, T/C [16]: 93.3%; viability, T/C [17]: 86.6%; viability, T/C [22]: 85.5%; viability, T/C [23]: 86.8%; viability, T/C [27]: 95.4%; viability, T/C [28]: 83.5%; viability, T/C [29]: 79.5%; viability, T/C [30]: 95.6%; viability, T/C [31]: 100%; viability, T/C [32]: 82.1%; viability, T/C [33]: 82.7%; viability, T/C [34]: 85%; viability, T/C [35]: 79.8%"
> 1,> 1,> 1,> 1,> 1,CC1COCCN1c1cc(-c2ccnn2C)c2ccnc(-c3ccn[nH]3)c2n1 (configuration not stated) + Cc1ccccc1N=Nc1ccc(NC(=O)c2ccnn2C)c(C)c1,94.6,84.1,83.3,62.6,101,82.7,68.3,61.9,101,93.5,79.5,66.9,101,89.3,72.1,"viability, T/C (second compound 0.1 µM, first compound 0.00316 µM): 105%; viability, T/C (second compound 0.1 µM, first compound 0.01 µM): 100%; viability, T/C (second compound 0.316 µM, first compound 0.00316 µM): 87.8%; viability, T/C (second compound 0.316 µM, first compound 0.01 µM): 96.9%; viability, T/C (second compound 1 µM, first compound 0.00316 µM): 99.8%; viability, T/C (second compound 1 µM, first compound 0.01 µM): 110%; viability, T/C (second compound 3.16 µM, first compound 0.00316 µM): 105%; viability, T/C (second compound 3.16 µM, first compound 0.01 µM): 110%; viability, T/C [27]: 60.1%; viability, T/C (second compound 10 µM, first compound 0.00316 µM): 119%; viability, T/C (second compound 10 µM, first compound 0.01 µM): 128%; viability, T/C [30]: 103%; viability, T/C [31]: 116%; viability, T/C [32]: 80.8%; viability, T/C [33]: 65.9%"
–,–,–,–,–,Cn1ncnc1C1c2n[nH]c(=O)c3cc(F)cc(c23)NC1c1ccc(F)cc1 (configuration not stated),–,–,–,–,–,–,–,–,–,–,–,–,–,–,–,"viability, T/C (compound 0.000316 µM): 103% and 92% and 97.7%; viability, T/C (compound 0.001 µM): 100% and 90.9% and 98.2%; viability, T/C (compound 0.00316 µM): 109% and 95.2% and 113%; viability, T/C (compound 0.01 µM): 101% and 102% and 111%; viability, T/C (compound 0.0316 µM): 102% and 100% and 97.5%; viability, T/C (compound 0.1 µM): 104% and 86.2% and 91%; IC50 (curve of compound): > 0.1 µM"
> 10,> 10,> 10,> 10,< 0.0316,O=C(c1cc(Cc2n[nH]c(=O)c3ccccc23)ccc1F)N1CCN(C(=O)C2CC2)CC1 + Cc1cncc(-c2nc(NCCc3c[nH]c4ccccc34)c3ncn(C(C)C)c3n2)c1,119,104,105,97.6,104,101,111,105,119,120,119,116,96.8,93.7,89.7,"viability, T/C [10]: 120%; viability, T/C [11]: 82.9%; viability, T/C [16]: 95.3%; viability, T/C [17]: 90%; viability, T/C [22]: 107%; viability, T/C [23]: 106%; viability, T/C [27]: 90%; viability, T/C [28]: 95.1%; viability, T/C [29]: 93.4%; viability, T/C [30]: 9.79%; viability, T/C [31]: 10.4%; viability, T/C [32]: 12.8%; viability, T/C [33]: 11.7%; viability, T/C [34]: 11.9%; viability, T/C [35]: 15.3%"
4.78,4.07,5.29,5.32,4.79,COc1ccc([C@@H](O)c2cc(-c3ncnc4cc(N5CCOCC5)ccc34)c(F)cc2Cl)nn1 + Cc1ccccc1N=Nc1ccc(NC(=O)c2ccnn2C)c(C)c1,93.5,108,90,81.4,83.7,91.8,97.5,80,96.8,91.8,87.2,79.5,93.8,98.4,90,"viability, T/C [10]: 61.7%; viability, T/C [11]: 30.5%; viability, T/C [16]: 55.6%; viability, T/C [17]: 32.3%; viability, T/C [22]: 61.1%; viability, T/C [23]: 35.6%; viability, T/C [27]: 86.5%; viability, T/C [28]: 61.9%; viability, T/C [29]: 35.3%; viability, T/C [30]: 107%; viability, T/C [31]: 111%; viability, T/C [32]: 110%; viability, T/C [33]: 94.5%; viability, T/C [34]: 61%; viability, T/C [35]: 31.1%"
